Assay results as given in ChEMBL document CHEMBL4334471, “Discovery of 1,8-disubstituted-[1,2,3]triazolo[4,5-c]quinoline derivatives as a new class of Hippo signaling pathway inhibitors” (Bioorg Med Chem Lett, 2019).

Assays:
[1] = biological target: Receptor-interacting serine/threonine-protein kinase 2 (Homo sapiens) (UniProt O43353); experiment: Inhibition of recombinant human RIPK2 (1 to 299 residues) assessed as residual activity at 10 uM using myelin basic protein as substrate incubated for 120 mins in presence of [gamma33P]ATP by scintillation counting based radiometry assay relative to control
[2] = biological target: Serine/threonine-protein kinase ULK2 (Homo sapiens) (UniProt Q8IYT8); experiment: Inhibition of recombinant human ULK2 (1 to 306 residues) assessed as residual activity at 10 uM using casein as substrate incubated for 40 mins in presence of [gamma33P]ATP by scintillation counting based radiometry assay relative to control
[3] = biological target: Fibroblast growth factor receptor 4 (Homo sapiens) (UniProt P22455); experiment: Inhibition of recombinant human FGFR4 (442 to 755 residues) assessed as residual activity at 10 uM using poly(Glu, Tyr) 4:1 as substrate at 40 mins in presence of [gamma-33ATP] by scintillation counting based radiometry assay relative to control
[4] = biological target: Cyclin-dependent kinase-like 3 (Homo sapiens) (UniProt Q8IVW4); experiment: Inhibition of recombinant full length human CDKL3 assessed as residual activity at 10 uM using RRRFRPASPLRGPPK as substrate incubated for 120 mins in presence of [gamma-33ATP] by scintillation counting based radiometry assay relative to control
[5] = system: Hepatocyte growth factor receptor (Homo sapiens), P08581 [Y1230C]; experiment: Inhibition of recombinant human MET A1209G/V1290L/Y1248C mutant (974 to end residues) assessed as residual activity at 10 uM using KKKGQEEEYVFIE as substrate incubated for 40 mins in presence of [gamma-33ATP by scintillation counting based radiometry assay relative to control
[6] = biological target: High affinity nerve growth factor receptor (Homo sapiens) (UniProt P04629); experiment: Inhibition of recombinant human TRKA (440 to end residues) assessed as residual activity at 10 uM using KKKSPGEYVNIEF as substrate incubated for 40 mins in presence of [gamma33P]ATP by scintillation counting based radiometry assay relative to control
[7] = biological target: Tyrosine-protein kinase Fer (Homo sapiens) (UniProt P16591); experiment: Inhibition of recombinant human FER (541 to end residues) assessed as residual activity at 10 uM using KKKSPGEYVNIEF as substrate at 40 mins in presence of [gamma-33ATP] by scintillation counting based radiometry assay relative to control
[8] = biological target: Serine/threonine-protein kinase MAK (Homo sapiens) (UniProt P20794); experiment: Inhibition of recombinant human MAK assessed as residual activity at 10 uM using RRRFRPASPLRGPPK as substrate after 120 mins in presence of [gamma-33ATP] by scintillation counting based radiometry assay relative to control
[9] = biological target: Serine/threonine-protein kinase STK11 (Homo sapiens) (UniProt Q15831); experiment: Inhibition of recombinant human LKB1 assessed as residual activity at 10 uM using LSNLYHQGKFLQT as substrate after 40 mins in presence of [gamma-33ATP] by scintillation counting based radiometry assay relative to control
[10] = biological target: Protein kinase C epsilon type (Homo sapiens) (UniProt Q02156); experiment: Inhibition of recombinant human PKCepsilon (2 to end residues) assessed as residual activity at 10 uM using ERMRPRKRQGSVRRRV as substrate incubated for 40 mins in presence of [gamma33P]ATP by scintillation counting based radiometry assay relative to control
[11] = biological target: Protein kinase C gamma type (Homo sapiens) (UniProt P05129); experiment: Inhibition of recombinant full-length human PKCgamma assessed as residual activity at 10 uM using histone H1 as substrate incubated for 40 mins in presence of [gamma33P]ATP by scintillation counting based radiometry assay relative to control
[12] = biological target: Mitogen-activated protein kinase 8 (Homo sapiens) (UniProt P45983); experiment: Inhibition of human JNK1alpha1 assessed as residual activity at 10 uM using ATF2 as substrate after 40 mins by [gamma-33ATP] radiometric assay relative to control
[13] = biological target: BMP-2-inducible protein kinase (Homo sapiens) (UniProt Q9NSY1); experiment: Inhibition of recombinant human BIKe assessed as residual activity at 10 uM using peptide as substrate incubated for 120 mins in presence of [gamma-33ATP] by scintillation counting based radiometry assay relative to control
[14] = biological target: Ephrin type-A receptor 3 (Homo sapiens) (UniProt P29320); experiment: Inhibition of recombinant human EphA3 (578 to end residues) assessed as residual activity at 10 uM using poly(Glu, Tyr) 4:1 as substrate at 40 mins in presence of [gamma-33ATP] by scintillation counting based radiometry assay relative to control
[15] = biological target: Dual specificity protein kinase CLK4 (Homo sapiens) (UniProt Q9HAZ1); experiment: Inhibition of recombinant human CLK4 (128 to end residues) assessed as residual activity at 10 uM using YRRAAVPPSPSLSRHSSPHQS(p)EDEEE as substrate incubated 40 mins in presence of [gamma-33ATP] by scintillation counting based radiometry assay relative to control
[16] = biological target: Serine/threonine-protein kinase tousled-like 2 (Homo sapiens) (UniProt Q86UE8); experiment: Inhibition of recombinant human TLK2 (387 to end residues) assessed as residual activity at 10 uM using casein as substrate incubated for 40 mins in presence of [gamma33P]ATP by scintillation counting based radiometry assay relative to control
[17] = biological target: Serine/threonine-protein kinase PAK 3 (Homo sapiens) (UniProt O75914); experiment: Inhibition of recombinant full-length human PAK3 assessed as residual activity at 10 uM using RRRLSFAEPG as substrate measured after 40 mins in presence of [gamma33P]ATP by scintillation counting based radiometry assay relative to control
[18] = biological target: Receptor-interacting serine/threonine-protein kinase 1 (Homo sapiens) (UniProt Q13546); experiment: Inhibition of recombinant human RIPK1 (8 to 322 residues) assessed as residual activity at 10 uM using myelin basic protein as substrate incubated for 40 mins in presence of [gamma33P]ATP by scintillation counting based radiometry assay relative to control
[19] = biological target: Tyrosine-protein kinase HCK (Homo sapiens) (UniProt P08631); experiment: Inhibition of human HCK activated (230 to 497 residues) assessed as residual activity at 10 uM using GGMEDIYFEFMGGKKK as substrate after 40 mins by [gamma-33ATP] radiometric assay relative to control
[20] = system: Hepatocyte growth factor receptor (Homo sapiens), P08581 [Y1230D]; experiment: Inhibition of recombinant human MET A1209G/V1290L/Y1248D mutant (974 to end residues) assessed as residual activity at 10 uM using KKKGQEEEYVFIE as substrate incubated for 40 mins in presence of [gamma-33ATP by scintillation counting based radiometry assay relative to control
[21] = biological target: SRSF protein kinase 2 (Homo sapiens) (UniProt P78362); experiment: Inhibition of recombinant human SRPK2 (46 to end residues) assessed as residual activity at 10 uM using RSRSRSRSRSRSRSR as substrate incubated for 40 mins in presence of [gamma33P]ATP by scintillation counting based radiometry assay relative to control

Sequence of Mitogen-activated protein kinase 8 (Homo sapiens) (P45983 whole entry): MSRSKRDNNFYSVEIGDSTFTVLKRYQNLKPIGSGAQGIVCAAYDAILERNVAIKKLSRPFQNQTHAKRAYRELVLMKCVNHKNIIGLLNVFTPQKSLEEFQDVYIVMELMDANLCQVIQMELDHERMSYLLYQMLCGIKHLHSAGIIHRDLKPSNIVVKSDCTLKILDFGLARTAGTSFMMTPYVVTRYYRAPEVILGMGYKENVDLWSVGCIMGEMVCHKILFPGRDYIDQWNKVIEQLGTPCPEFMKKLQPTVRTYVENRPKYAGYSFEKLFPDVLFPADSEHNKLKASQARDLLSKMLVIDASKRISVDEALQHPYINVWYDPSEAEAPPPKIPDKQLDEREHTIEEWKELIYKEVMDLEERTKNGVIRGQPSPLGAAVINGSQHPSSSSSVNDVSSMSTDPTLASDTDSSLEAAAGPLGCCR
Sequence of Tyrosine-protein kinase Fer (Homo sapiens) (P16591 whole entry, looked up): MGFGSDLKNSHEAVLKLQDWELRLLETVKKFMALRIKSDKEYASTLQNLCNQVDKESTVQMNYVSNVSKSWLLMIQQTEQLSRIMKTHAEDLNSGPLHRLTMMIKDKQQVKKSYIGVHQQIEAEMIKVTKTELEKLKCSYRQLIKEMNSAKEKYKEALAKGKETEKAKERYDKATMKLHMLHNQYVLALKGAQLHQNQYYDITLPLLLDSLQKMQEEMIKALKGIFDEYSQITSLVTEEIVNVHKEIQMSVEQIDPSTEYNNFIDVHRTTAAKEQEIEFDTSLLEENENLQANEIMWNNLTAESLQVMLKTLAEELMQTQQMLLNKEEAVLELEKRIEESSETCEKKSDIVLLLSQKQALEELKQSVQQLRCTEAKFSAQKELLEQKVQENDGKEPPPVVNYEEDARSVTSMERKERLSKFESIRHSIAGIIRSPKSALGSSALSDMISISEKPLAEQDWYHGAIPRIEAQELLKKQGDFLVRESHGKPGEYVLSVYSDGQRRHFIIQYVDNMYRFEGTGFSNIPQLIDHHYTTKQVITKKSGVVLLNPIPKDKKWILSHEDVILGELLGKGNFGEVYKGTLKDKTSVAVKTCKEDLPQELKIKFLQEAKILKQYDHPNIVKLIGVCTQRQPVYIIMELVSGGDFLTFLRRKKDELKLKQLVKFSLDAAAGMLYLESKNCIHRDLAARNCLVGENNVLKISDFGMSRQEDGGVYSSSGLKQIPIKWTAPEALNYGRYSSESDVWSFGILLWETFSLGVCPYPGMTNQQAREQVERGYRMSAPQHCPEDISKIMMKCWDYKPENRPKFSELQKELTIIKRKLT
Sequence of Cyclin-dependent kinase-like 3 (Homo sapiens) (Q8IVW4 whole entry, looked up): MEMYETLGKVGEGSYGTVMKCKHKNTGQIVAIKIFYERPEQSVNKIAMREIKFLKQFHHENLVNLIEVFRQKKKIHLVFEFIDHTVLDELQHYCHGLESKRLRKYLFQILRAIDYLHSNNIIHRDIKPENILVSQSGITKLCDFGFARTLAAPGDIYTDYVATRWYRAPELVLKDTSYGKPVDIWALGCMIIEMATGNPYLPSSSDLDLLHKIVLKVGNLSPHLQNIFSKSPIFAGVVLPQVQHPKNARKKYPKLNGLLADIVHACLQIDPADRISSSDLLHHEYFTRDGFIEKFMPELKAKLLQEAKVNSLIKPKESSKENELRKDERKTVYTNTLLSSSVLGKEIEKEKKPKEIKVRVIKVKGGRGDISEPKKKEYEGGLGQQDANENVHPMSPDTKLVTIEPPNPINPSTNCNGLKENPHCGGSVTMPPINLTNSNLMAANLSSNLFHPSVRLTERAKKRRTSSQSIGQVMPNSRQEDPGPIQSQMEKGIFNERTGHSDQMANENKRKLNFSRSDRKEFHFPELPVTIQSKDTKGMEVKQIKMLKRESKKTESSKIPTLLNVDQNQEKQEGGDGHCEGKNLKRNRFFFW
Sequence of Serine/threonine-protein kinase STK11 (Homo sapiens) (Q15831 whole entry): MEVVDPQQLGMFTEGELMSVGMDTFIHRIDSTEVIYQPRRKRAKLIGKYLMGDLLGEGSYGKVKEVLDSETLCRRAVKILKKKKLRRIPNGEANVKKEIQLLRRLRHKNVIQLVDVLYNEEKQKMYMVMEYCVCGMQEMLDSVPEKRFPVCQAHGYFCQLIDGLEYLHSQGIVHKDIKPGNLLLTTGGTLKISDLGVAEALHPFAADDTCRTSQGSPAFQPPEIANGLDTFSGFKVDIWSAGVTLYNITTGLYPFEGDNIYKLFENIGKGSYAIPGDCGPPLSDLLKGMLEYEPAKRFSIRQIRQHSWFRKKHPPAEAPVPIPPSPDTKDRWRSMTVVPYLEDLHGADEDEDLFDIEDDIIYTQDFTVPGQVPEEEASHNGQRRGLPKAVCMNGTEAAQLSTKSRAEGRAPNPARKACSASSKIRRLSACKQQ
Sequence of Ephrin type-A receptor 3 (Homo sapiens) (P29320 whole entry): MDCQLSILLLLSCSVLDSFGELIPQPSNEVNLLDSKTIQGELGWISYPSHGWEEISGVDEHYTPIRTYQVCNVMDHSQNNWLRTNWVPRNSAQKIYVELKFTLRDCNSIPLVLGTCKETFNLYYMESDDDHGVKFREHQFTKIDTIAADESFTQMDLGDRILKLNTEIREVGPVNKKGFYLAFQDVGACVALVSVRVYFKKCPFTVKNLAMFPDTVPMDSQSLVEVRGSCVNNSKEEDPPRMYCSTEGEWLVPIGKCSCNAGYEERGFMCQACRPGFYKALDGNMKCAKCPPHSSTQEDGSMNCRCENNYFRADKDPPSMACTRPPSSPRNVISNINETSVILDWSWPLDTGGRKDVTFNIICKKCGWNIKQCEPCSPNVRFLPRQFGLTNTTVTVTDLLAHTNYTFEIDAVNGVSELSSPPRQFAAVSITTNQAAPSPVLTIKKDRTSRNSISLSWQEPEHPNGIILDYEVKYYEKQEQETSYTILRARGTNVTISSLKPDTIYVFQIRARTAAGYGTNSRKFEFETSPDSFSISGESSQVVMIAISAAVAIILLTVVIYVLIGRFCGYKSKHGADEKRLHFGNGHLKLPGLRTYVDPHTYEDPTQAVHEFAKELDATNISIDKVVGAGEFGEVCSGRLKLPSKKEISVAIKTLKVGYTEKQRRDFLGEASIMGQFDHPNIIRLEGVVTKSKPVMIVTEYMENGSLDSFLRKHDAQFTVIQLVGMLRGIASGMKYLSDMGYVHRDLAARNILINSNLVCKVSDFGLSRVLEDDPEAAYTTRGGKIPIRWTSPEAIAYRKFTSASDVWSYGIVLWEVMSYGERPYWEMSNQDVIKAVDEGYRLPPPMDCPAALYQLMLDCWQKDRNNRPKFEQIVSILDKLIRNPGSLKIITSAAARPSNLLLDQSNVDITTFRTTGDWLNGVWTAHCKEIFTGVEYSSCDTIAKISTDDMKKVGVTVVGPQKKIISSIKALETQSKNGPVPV
Sequence of High affinity nerve growth factor receptor (Homo sapiens) (P04629 33-796 limits assumed): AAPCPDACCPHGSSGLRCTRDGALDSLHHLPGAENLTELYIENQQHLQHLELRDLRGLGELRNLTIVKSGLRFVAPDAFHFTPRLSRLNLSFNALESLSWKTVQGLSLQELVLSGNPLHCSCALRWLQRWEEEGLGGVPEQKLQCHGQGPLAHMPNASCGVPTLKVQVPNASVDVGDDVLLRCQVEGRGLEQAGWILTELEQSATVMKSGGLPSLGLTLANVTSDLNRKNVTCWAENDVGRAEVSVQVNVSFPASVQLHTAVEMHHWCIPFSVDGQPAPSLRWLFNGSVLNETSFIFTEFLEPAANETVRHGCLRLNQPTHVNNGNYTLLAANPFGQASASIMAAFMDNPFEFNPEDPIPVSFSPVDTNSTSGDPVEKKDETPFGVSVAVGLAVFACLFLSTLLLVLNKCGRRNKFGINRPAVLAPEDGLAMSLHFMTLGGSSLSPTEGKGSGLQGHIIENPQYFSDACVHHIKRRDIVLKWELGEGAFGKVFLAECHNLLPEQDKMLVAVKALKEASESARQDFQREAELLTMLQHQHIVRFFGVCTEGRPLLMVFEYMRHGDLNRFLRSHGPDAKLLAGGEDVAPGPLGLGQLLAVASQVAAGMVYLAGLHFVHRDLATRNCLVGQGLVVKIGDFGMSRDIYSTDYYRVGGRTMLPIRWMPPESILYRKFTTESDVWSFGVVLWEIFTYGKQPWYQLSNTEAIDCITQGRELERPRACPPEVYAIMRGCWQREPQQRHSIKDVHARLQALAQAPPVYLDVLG
Sequence of Fibroblast growth factor receptor 4 (Homo sapiens) (P22455 22-802 limits assumed): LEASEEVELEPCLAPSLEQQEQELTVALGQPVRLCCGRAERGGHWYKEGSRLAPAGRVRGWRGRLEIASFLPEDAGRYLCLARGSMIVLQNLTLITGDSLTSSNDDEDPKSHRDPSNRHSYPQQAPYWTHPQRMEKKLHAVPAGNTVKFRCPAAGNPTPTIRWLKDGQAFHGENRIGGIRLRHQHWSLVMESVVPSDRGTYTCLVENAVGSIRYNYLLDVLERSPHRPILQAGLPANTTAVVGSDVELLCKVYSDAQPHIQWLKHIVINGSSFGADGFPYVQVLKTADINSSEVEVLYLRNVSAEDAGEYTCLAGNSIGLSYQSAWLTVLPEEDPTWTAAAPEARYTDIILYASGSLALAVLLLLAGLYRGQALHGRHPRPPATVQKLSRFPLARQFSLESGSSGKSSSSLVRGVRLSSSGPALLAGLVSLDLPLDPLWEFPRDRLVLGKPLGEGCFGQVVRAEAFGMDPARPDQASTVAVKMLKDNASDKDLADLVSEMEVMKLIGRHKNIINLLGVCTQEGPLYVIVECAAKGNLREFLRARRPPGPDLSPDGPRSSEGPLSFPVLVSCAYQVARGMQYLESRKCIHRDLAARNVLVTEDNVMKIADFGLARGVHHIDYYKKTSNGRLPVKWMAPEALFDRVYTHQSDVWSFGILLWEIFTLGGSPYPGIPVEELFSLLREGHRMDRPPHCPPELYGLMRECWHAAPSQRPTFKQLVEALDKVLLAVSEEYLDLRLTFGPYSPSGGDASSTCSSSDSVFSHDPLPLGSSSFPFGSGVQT

`C[C@@H](c1ccccc1)n1nnc2cnc3ccc(-c4cnc5[nH]ccc5c4)cc3c21` was tested. Which Activity [1] did it give?
Its Activity is 23%.

And the Activity [2]?
The Activity was 98%.

What about the Activity [3] of the same compound?
The Activity was 68%.

What about the Activity [4] of the same compound?
Its Activity is 104%.

And the Activity [5]?
Its Activity is 49%.

What about the Activity [6] of the same compound?
The Activity was 5%.

What about the Activity [7] of the same compound?
The Activity was 83%.

What about the Activity [8] of the same compound?
The Activity was 87%.

What about the Activity [9] of the same compound?
Its Activity is 91%.

What about the Activity [10] of the same compound?
Its Activity is 97%.

What about the Activity [11] of the same compound?
The Activity was 83%.

What about the Activity [12] of the same compound?
Its Activity is 105%.

What about the Activity [13] of the same compound?
Its Activity is 54%.

What about the Activity [14] of the same compound?
The Activity was 80%.

And the Activity [15]?
The Activity was 46%.

And the Activity [16]?
The Activity was 106%.

What about the Activity [17] of the same compound?
The Activity was 136%.

And the Activity [18]?
The Activity was 98%.

And the Activity [19]?
The Activity was 21%.

What about the Activity [20] of the same compound?
The Activity was 70%.

And the Activity [21]?
The Activity was 26%.
